# According to article PMC10021052, “Novel multivalent S100A8 inhibitory peptides attenuate tumor progression and metastasis by inhibiting the TLR4-dependent pathway” (Cancer Gene Therapy, 2023):
# Entries after “also recorded” stand apart in the source; their conditions may differ.
# Columns and labels:
# [1] = tested on: SW480-transplanted xenograft; assay: Tumor growth in SW480-transplanted xenograft model; format: in vivo, Balb nu/nu mice; conditions: SW480 xenograft, various concentrations every 3 days, *P < 0.05 vs control
# S100A8-TLR4/MD-2 complex = assay: Competitive inhibition of S100A8-TLR4/MD-2 binding (ELISA, S100A8 immobilized; also immunoprecipitation); parameters: species or system human; conditions: for competitive inhibitory activity against TLR4/MD-2, peptide3A5-derived peptides: competitive inhibitory assay, Fig. 7B, E, *P < 0.05 vs TLR4/MD-2/S100A8; for competitive inhibition, potency compared with parent: ELISA, peptide3A5 vs peptide #3 (Fig. 3B), divalent vs monomer (Fig. 4A)
# Description: (§1) S100A8 recombinant protein was purified as previously described. These proteins were immobilized on Maxisorp plates (Thermo Fisher Scientific, Waltham, MA, USA), followed by blocking with protein-free blocking buffer (Thermo Fisher Scientific). TLR4/MD-2 recombinant proteins with various concentrations of candidate peptides were then added to the indicated S100A8-immobilized ELISA plates for 2 h. The plates were washed, incubated with anti-TLR4 antibody, and HRP-conjugated secondary antibody, followed by the addition of substrate. The reaction was stopped by addition a 2N H2SO4 solution. Absorbance OD450/OD650 was measured using a microplate reader (Thermo Fisher Scientific). Maxisorp plates were also used for peptide coating. After blocking with protein-free blocking buffer, the coated plates were washed, and TLR4/MD-2 recombinant protein (2 µg/ml) was added to each well. The plates were incubated with a TLR4 antibody followed by horseradish peroxidase (HRP)-labeled anti-rabbit IgG. For detection of IL8 and VEGF in culture supernatants, SW480 cells were pretreated with the indicated peptides, and followed by stimulation with S100A8 for 24 h. The amount of interleukin-8 (IL-8) or VEGF in the supernatants were analyzed by ELISA kits (R&D Systems, Mineapolis, MN) according to the manufacturer’s instructions.
# (§2) Fig. 2 Identification of S100A8 binding sites to human TLR4/MD-2. […] TLR4/MD-2 recombinant proteins were immobilized to the ELISA plate. After blocking, a full length or deletion mutant of S100A8 was added to the plate. The more detailed methods are described in Materials and Methods. […] B A series of overlapping S100A8 synthetic peptides. The TLR4/MD-2 recombinant proteins were added to each well of peptide immobilized plates. The affinity to TLR4/MD-2 was determined. Data are shown as mean ± SD. C The competitive activity was determined using ELISA. Data are shown as mean ± SD. D The TLR4/MD-2 was mixed with S100A8 with/without the indicated peptides, and immunoprecipitated using an anti-TLR4 antibody. TLR4 or S100A8 was visualized. Similar results were obtained in three independent experiments. […] Total RNAs from SW480 cells with/without treatment of the peptide candidates were extracted and qPCR analysis was performed using relevant primer sets and SYBR green. Relative expression levels were compared. […] TEXT PRINTED IN THE PICTURE: (A) Full length: TLR4/MD-2 binding: + | (A) S100A8-ΔC: TLR4/MD-2 binding: − | (A) S100A8-N: TLR4/MD-2 binding: −
# (§3) Fig. 4 Improvement of competitive inhibition activity by divalent peptide3A5. A The binding capacity was measured at the indicated concentration using an ELISA-based assay. Similar results were obtained in three independent experiments. B SW480 cells were pretreated with 2.5 µM of divalent peptide3A5, and then stimulated with human S100A8 recombinant protein. After 30 min, cell lysates were subjected to western blotting using the indicated antibody. The divalent peptide#3 or peptide3A5 reduced the expression of S100A8-mediated IL-8 (C) and VEGF (D) induction. Total RNAs from SW480 cells with/without treatment of the peptide candidates were extracted and qPCR analysis was performed using relevant primer sets and SYBR green. Relative expression levels were compared. Peptide #3 suppresses S100A8-mediated IL-8(E) and VEGF (F) secretion in SW480 cells.
# [2] = tested on: tumor cells and macrophages; assay: Cytokine/chemokine induction in tumor cells and macrophages; format: cell-based; conditions: possible mechanism scheme, Fig. 7I
# human TLR4/MD-2 complex [3] = assay: ELISA, S100A8 protein or mutant binding to TLR4/MD-2; conditions: recombinant S100A8 full length or mutant
# Description: as §1
# Fig. 2 Identification of S100A8 binding sites to human TLR4/MD-2. […] TLR4/MD-2 recombinant proteins were immobilized to the ELISA plate. After blocking, a full length or deletion mutant of S100A8 was added to the plate. The more detailed methods are described in Materials and Methods. […] B A series of overlapping S100A8 synthetic peptides. The TLR4/MD-2 recombinant proteins were added to each well of peptide immobilized plates. The affinity to TLR4/MD-2 was determined. Data are shown as mean ± SD. C The competitive activity was determined using ELISA. Data are shown as mean ± SD. D The TLR4/MD-2 was mixed with S100A8 with/without the indicated peptides, and immunoprecipitated using an anti-TLR4 antibody. TLR4 or S100A8 was visualized. […]
# [4] = target: tetravalent ILVIK (human); assay: ELISA; tetravalent ILVIK immobilised; after blocking TLR4/MD-2 proteins added at various concentrations (Fig. 7F)
# TLR4/MD-2 complex = target: T1, TLR4/MD-2 complex (Homo sapiens, UniProt O00206+Q9Y6Y9); assay: Divalent peptide library screening and ILVIK derivatives, binding to TLR4/MD-2 (ELISA); conditions: ELISA-based, Fig. 7A, D
# T1 construct: TLR4/MD-2 recombinant protein (2 µg/ml) was added to each well
# T1 sequence (O00206 24-631 limits assumed): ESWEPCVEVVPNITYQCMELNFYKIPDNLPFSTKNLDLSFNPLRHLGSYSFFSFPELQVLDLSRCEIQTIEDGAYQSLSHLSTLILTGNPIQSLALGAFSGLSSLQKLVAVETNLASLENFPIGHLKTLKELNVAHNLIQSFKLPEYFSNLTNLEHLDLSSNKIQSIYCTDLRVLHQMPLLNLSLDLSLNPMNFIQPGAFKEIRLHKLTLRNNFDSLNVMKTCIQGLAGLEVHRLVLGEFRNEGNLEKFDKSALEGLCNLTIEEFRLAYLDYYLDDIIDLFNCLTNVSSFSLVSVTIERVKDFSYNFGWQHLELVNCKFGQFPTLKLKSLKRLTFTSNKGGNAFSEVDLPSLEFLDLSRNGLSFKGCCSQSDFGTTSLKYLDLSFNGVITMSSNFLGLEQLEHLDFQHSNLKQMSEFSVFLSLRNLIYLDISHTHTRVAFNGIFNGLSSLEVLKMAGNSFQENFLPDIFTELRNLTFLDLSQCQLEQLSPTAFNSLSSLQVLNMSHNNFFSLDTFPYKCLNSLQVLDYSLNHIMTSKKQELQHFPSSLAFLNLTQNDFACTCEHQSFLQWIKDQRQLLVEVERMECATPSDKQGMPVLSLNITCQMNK
# T1 sequence (Q9Y6Y9 17-160 partner limits assumed): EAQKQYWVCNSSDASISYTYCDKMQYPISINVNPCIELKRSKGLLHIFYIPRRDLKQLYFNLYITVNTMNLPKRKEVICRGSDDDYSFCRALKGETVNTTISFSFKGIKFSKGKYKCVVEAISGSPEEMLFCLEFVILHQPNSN
# Description: Spot synthesis of divalent peptides on a cellulose membrane was performed using a ResPep SL SPOT synthesizer (INTAVIS Bioanalytical Instruments AG, Koeln, Germany) as described previously. Briefly, Fmoc-β-Ala-OH (Watanabe Chemical Industries, Hiroshima, Japan) was used in the first cycle, followed by amino hexanoic acid as a spacer. Fmoc-Lys(Fmoc)-OH (Watanabe Chemical Industries) was used for the next cycle to form two branches in the peptide chain for the subsequent synthesis of the various motifs. The synthesis of each peptide was confirmed by staining the membrane using bromophenol blue (1% in N, N′-dimethylformamide), which reacts with free amino residues. Free amino residues are produced only after the completion of all reactions and before deprotection of the side chain residues. […]
# S100A8 recombinant protein was purified as previously described. […] Absorbance OD450/OD650 was measured using a microplate reader (Thermo Fisher Scientific). […] The amount of interleukin-8 (IL-8) or VEGF in the supernatants were analyzed by ELISA kits (R&D Systems, Mineapolis, MN) according to the manufacturer’s instructions.
# Fig. 7 Isolation of multivalent S100A8 inhibitory peptides using divalent peptide libraries based on the sequences of peptide3A5. […] The binding affinities to TLR4/MD-2 complex were determined using an ELISA-based assay. […]
# human TLR4/MD-2 complex [5] = assay: ELISA, TLR4/MD-2 binding to immobilized S100A8-derived peptides (overlapping peptides, alanine scan); conditions: alanine scan on peptide #3, compared with parental peptide#3, peptide3A5 *P = 0.013
# Description: as §1, §2
# Fig. 3 Identification of high affinity peptides to TLR4/MD-2 using alanine scanning based on the peptide #3 amino acid sequences. A Lists of peptides used for alanine scanning. […] Similar results were obtained in three independent experiments.
# PKH26-labeled LLC cells = assay: Lung dissemination of PKH26-labeled LLC cells in TCM-sensitized mice; format: in vivo, C57BL/6J mice; conditions: 10 mg/kg i.p. 1 h before last TCM injection; lungs 16 h after cells; 5–6 mice per group; *P < 0.05 vs control
# SW480 cells [6] = assay: qPCR, S100A8-mediated IL-8 and VEGF mRNA induction in SW480 cells; format: cell-based, human; conditions: qPCR, normalized to β-actin
# Description: SW480 cells were treated with S100A8 in Dulbecco’s Modified Eagle Medium/HamF12 supplemented with 0.1% bovine serum albumin for cytokine induction. Total RNA was extracted using the RNeasy Mini Plus (Qiagen, Hilden, Germany). Complementary DNA was synthesized using the PrimeScript 1st Strand Synthesis kit (Takara Bio, Japan). Quantitative PCR (qPCR) analysis was performed using the PowerUp^TM SYBR^TM Green mixture (Thermo Fisher Scientific) and the StepOnePlus Real Time PCR System (Thermo Fisher Scientific). Gene expression levels were calculated from Ct values, and the relationship between the Ct value and the logarithm of the copy number of a target gene was confirmed to be on a linear line using the corresponding isolated DNA and its serial dilutions as a standard. Thus, the gene expression levels of IL-8 and VEGF were normalized against that of β-actin in each sample. The following primers were used; β-actin, 5′-[…]-3′ and 5′-[…]-3′; IL-8, 5′-[…]-3′ and 5′-[…]-3′; VEGF, 5′-[…]-3′ and 5′-[…]-3′.
# as §2, §3
# SW480 cells [7] = assay: ELISA, IL-8 and VEGF secretion of SW480 cells; format: cell-based, human; conditions: SW480 cells; data not shown
# Description: as §1
# mouse TLR4/MD-2 complex = conditions: ref [8]; cited from earlier work
molecule,measurement,setting,value
"ILVIK [Divalent ILVIK, divalent peptide with two ILVIK motifs on a monolysine core, N-terminus acetylated]","tumor growth, multivalent ILVIK",[1],inhibits tumor growth
same,"tumor growth, multivalent ILVIK",[1]; listed as divalent ILVIK,inhibited tumor growth in subcutaneously transplanted SW480 cells in a dose-dependent manner
same,"competitive inhibitory activity against TLR4/MD-2, peptide3A5-derived peptides",S100A8-TLR4/MD-2 complex; listed as deletion mutant of the FQEFA amino acid sequences,sustained the competitive inhibitory activity
same,"competitive inhibitory activity against TLR4/MD-2, peptide3A5-derived peptides",S100A8-TLR4/MD-2 complex; listed as divalent ILVIK,candidate inhibitor; also recorded: competitively inhibited S100A8 binding to TLR4/MD-2
same,induction of cytokines/chemokines,[2],suppress the induction of cytokines/chemokines in both tumor cells and macrophages
human S100A8: full length human S100A8 recombinant protein,binding to human TLR4/MD-2 (in words),human TLR4/MD-2 complex [3],binds to human TLR4/MD-2 complex
human TLR4/MD-2 complex (from UniProt O00206 24-839; Q9Y6Y9 19-160),Kd,[4],4.58 to 8.78 nM
"FQEFA [FQEFA dimer, dimer of FQEFA, peptide3A5 with the last five amino acids deleted]","binding to TLR4/MD-2, peptide3A5-derived peptides",TLR4/MD-2 complex,diminished the capacity of binding to TLR4/MD-2
FQEFAILVIK [peptide3A5],"affinity for TLR4/MD-2, alanine scanning",human TLR4/MD-2 complex [5],increased the affinity for TLR4/MD-2
same,"affinity for TLR4/MD-2, alanine scanning",human TLR4/MD-2 complex [5]; listed as Peptide3A5,increased binding affinity to TLR4/MD-2
same,pulmonary recruitment of PKH26-labeled LLC cells / lung metastasis,PKH26-labeled LLC cells,suppressed the pulmonary recruitment of tumor cells
same,"competitive inhibition, potency compared with parent",S100A8-TLR4/MD-2 complex,competed with the S100A8-TLR4/MD-2 complex at a lower dose than peptide #3
same,"competitive inhibition, potency compared with parent",S100A8-TLR4/MD-2 complex; listed as Peptide3A5,more potent for competitive inhibition on S100A8-TLR4/MD-2 complex than peptide #3
same,S100A8-mediated VEGF induction (mRNA),SW480 cells [6],reduced
same,S100A8-mediated IL-8 induction (mRNA),SW480 cells [6]; *P < 0.05 vs S100A8,reduced
"ILVIK [monomeric ILVIK, monovalent ILVIK peptide, N-terminus acetylated]","binding to TLR4/MD-2, peptide3A5-derived peptides",TLR4/MD-2 complex,did not perform these activities
same,"competitive inhibitory activity against TLR4/MD-2, peptide3A5-derived peptides",S100A8-TLR4/MD-2 complex,did not perform these activities; also recorded: failed to obtain the competitive inhibitory activities against the TLR4/MD-2 complex
Lys77: peptide #3 with substitution of Lys77 with alanine (FQEFLILVIA),"affinity for TLR4/MD-2, alanine scanning",human TLR4/MD-2 complex [5],diminished the S100A8 activity of TLR4/MD-2 binding
S100A8-Lys77Ala: S100A8-Lys77Ala recombinant protein (protein) MLTELEKALNSIIDVYHKYSLIKGNFHAVYRDDLKKLLETECPQYIRKKGADVWFKELDINTDGAVNFQEFLILVIAMGVAAHKKSHEESHKE,binding to human TLR4/MD-2 (in words),human TLR4/MD-2 complex [3],hardly bound to the TLR4/MD-2 complex
same,binding to human TLR4/MD-2 (in words),human TLR4/MD-2 complex [3]; listed as S100A8Lys77Ala,decreased affinity to TLR4/MD-2
same,"IL-8 production, S100A8 mutant",SW480 cells [7],had no effect on IL-8 production
"mouse S100A8: mouse S100A8 protein (protein, UniProt P27005 2-89, looked up) Protein S100-A8: PSELEKALSNLIDVYHNYSNIQGNHHALYKNDFKKMVTTECPQFVQNINIENLFRELDINSDNAINFEEFLAMVIKVGVASHKDSHKE",binding to mouse TLR4/MD-2,mouse TLR4/MD-2 complex,binds to the mouse TLR4/MD-2 complex via the carboxyl-terminal region
